Experiments:
[1] = molecular target: T1, His-His-USP7 (aa208-560, |C315A|) (Homo sapiens, UniProt Q93009, C315A); experiment: Evaluation of the inhibition of USP7 by the Fluorescence Intensity (FLINT) readings; type: biochemical; settings: 0.25 nM His-His-USP7, compound incubated 60 minutes at 30° C., 500 nM Ubiquitin-Rhodamine-110 substrate; 50% reduction in kinetic rate
T1 construct: His-His-USP7 (aa208-560, |C315A|); His-His (N)
How it was run: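 IC50 reflects 50% reduction in kinetic rate of rhodamine-110 release (Ex485/Em535, reads every 3 min over 21 min), normalised to DMSO and no-enzyme controls, from an 11-point 4-parameter fit. Substrate is 500 nM Ub-Rh110, added after 60 min, 30 °C preincubation of compound with 0.25 nM USP7 aa208–560 C315A. Buffer is Bicine pH 8.0 with 10% DMSO.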

[2] = tested on: Z138 mantle cell lymphoma tumour cell lines; experiment: In vitro cytotoxicity, MTT assay; type: cell-based; settings: Homo sapiens, Z138 cells exposed to the test compounds for 96 hours, cell viability vs DMSO treated cells
Description: The cytotoxicity studies were evaluated by MTT [3-(4,5-dimethylthiazol-2-yl)-2,5-diphenyltetrazolium bromide] assay and carried out on Z138 mantle cell lymphoma tumour cell lines. The cells are distributed onto microplates and exposed to the test compounds for 96 hours. MTT is then added for 4 hours and converted by NAD(P)H-dependent cellular oxidoreductase enzymes in formazan, which has a purple color. The viable cell number is proportional to the production of formuan salts and cell viability can be quantified by the absorbance of the solution at 540 nm with a speetrophotometer (Carmichael et al., Cancer Res. 1987, 47, 936-942).

T1 sequence (Q93009 208-560 C315A): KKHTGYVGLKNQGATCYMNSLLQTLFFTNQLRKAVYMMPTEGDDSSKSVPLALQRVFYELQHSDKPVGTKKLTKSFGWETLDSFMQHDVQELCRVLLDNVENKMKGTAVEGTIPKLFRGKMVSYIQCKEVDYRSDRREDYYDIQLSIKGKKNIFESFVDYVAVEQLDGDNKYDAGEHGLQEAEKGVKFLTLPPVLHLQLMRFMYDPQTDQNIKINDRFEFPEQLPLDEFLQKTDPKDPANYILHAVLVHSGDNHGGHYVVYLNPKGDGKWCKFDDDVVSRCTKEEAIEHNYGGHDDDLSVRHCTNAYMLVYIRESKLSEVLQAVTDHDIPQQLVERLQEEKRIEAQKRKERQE

Compound | IC50 [1] | IC50 ([2]; Z-138, 96 h) | IC50 ([2]; Z-138)
CC(C)c1ccc(Oc2ncn(CC3(O)CCN(C(=O)[C@@H]4CCC(F)(F)C[C@H]4c4ccccc4)CC3)c(=O)c2N)cc1O [Example 120, 5-amino-3-({1-[(1R,2R)-4,4-difluoro-2-phenylcyclohexane-1-carbonyl]-4-hydroxypiperidin-4-yl}methyl)-6-[3-hydroxy-4-(propan-2-yl)phenoxy]pyrimidin-4(3H)-one] | 16.3 nM | 0.103 µM | 
CO[C@]1(C#Cc2nccn2C)CC[C@@H](C(=O)N2CCC(O)(Cn3cnc(Oc4ccc(F)cc4)c(N)c3=O)CC2)[C@H](c2ccccc2)C1 [Example 159, 5-amino-6-(4-fluorophenoxy)-3-[(4-hydroxy-1-{[(1R,2R,4R)-4-methoxy-4-[2-(1-methylimidazol-2-yl)ethynyl]-2-phenytcyclohexyl]carbonyl}piperidin-4-yl)methyl]pyrimidin-4-one] | 28.2 nM | 0.0168 µM | 
CO[C@]1(C#Cc2cccnn2)CC[C@@H](C(=O)N2CC[C@](O)(Cn3cnc(Oc4ccc(F)cc4)c(N)c3=O)C(F)(F)C2)[C@H](c2ccccc2)C1 [Example 165, 5-amino-3-{[(4S)-3,3-difluoro-4-hydroxy-1-{[(1R,2R,4R)-4-methoxy-2-phenyl-4-[2-(pyridazin-3-yl)ethynyl]cyclohexyl]carbonyl}piperidin-4-yl]methyl}-6-(4-fluorophenoxy)pyrimidin-4-one] | 5.57 nM | 0.00415 µM | 
Nc1c(Oc2ccc3c(c2)OCO3)ncn(CC2(O)CCN(C(=O)[C@@H]3CCC(F)(F)C[C@H]3c3ccccc3)CC2)c1=O [Example 14] | 71.8 nM | 0.0413 µM | 
Nc1c(Oc2ccc3c(c2)CC(O)C3)ncn(CC2(O)CCN(C(=O)[C@@H]3CCC(F)(F)C[C@H]3c3ccccc3)CC2)c1=O (stereo partly drawn) [Example 48, 5-amino-3-({1-[(1R,2R)-4,4-difluoro-2-phenylcyclohexane-1-carbonyl]-4-hydroxypiperidin-4-yl}methyl)-6-[(2-hydroxy-2,3-dihydro-1H-inden-5-yl)oxy]pyrimidin-4(3H)-one] | 62 nM | 0.072 µM | 
Cc1cnnc(C#C[C@@]2(F)CC[C@@H](C(=O)N3CC[C@](O)(Cn4cnc(Oc5ccc(F)cc5)c(N)c4=O)C(F)(F)C3)[C@H](c3ccccc3)C2)c1 [Example 172, 5-amino-3-{[(4S)-3,3-difluoro-1-[(1R,2R,4R)-4-fluoro-4-[2-(5-methylpyridazin-3-yl)ethynyl]-2-phenylcyclohexanecarbonyl]-4-hydroxypiperidin-4-yl]methyl}-6-(4-fluorophenoxy)-3,4-dihydropyrimidin-4-one] | 5.5 nM | 0.00501 µM | 
Nc1c(Oc2ccc(F)cc2)ncn(C[C@@]2(O)CCN(C(=O)[C@@H]3CCC(F)(F)C[C@H]3c3ccccc3)CC2(F)F)c1=O [Example 78, 5-amino-3-({(4S)-1-[(1R,2R)-4,4-difluoro-2-phenylcyclohexane-1-carbonyl]-3,3-difluoro-4-hydroxypiperidin-4-yl}methyl)-6-(4-fluorophenoxy)pyrimidin-4(3H)-one] | 57.5 nM | 0.115 µM | 
CO[C@]1(C#Cc2nccc(C)n2)CC[C@@H](C(=O)N2CC[C@](O)(Cn3cnc(Oc4ccc(F)cc4)c(N)c3=O)C(F)(F)C2)[C@H](c2ccccc2)C1 [Example 176, 5-amino-3-{[(4S)-3,3-difluoro-4-hydroxy-1-[(1R,2R,4R)-4-methoxy-4-[2-(4-methylpyrimidin-2-yl)ethynyl]-2-phenylcyclohexanecarbonyl]piperidin-4-yl]methyl}-6-(4-fluorophenoxy)-3,4-dihydropyrimidin-4-one] | 77.2 nM | 0.037 µM | 
CO[C@@H]1CC[C@@](C#Cc2cc(C)cnn2)(C(=O)N2CC[C@](O)(Cn3cnc(Oc4ccc(F)cc4)c(N)c3=O)C(F)(F)C2)[C@@H](c2ccccc2)C1 [Example 169, 5-amino-3-{[(4S)-3,3-difluoro-4-hydroxy-1-[(1R,2R,4R)-4-methoxy-1-[2-(5-methylpyridazin-3-yl)ethynyl]-2-phenylcyclohexanecarbonyl]piperidin-4-yl]methyl}-6-(4-fluorophenoxy)-3,4-dihydropyrimidin-4-one] | 8.8 nM | 0.00218 µM | 
NCc1cccc(Oc2ncn(CC3(O)CCN(C(=O)[C@@H]4CCC(F)(F)C[C@H]4c4ccccc4)CC3)c(=O)c2N)c1 [Example 61, 5-amino-6-[3-(aminomethyl)phenoxy]-3-({1-[(1R,2R)-4,4-difluoro-2-phenylcyclohexane-1-carbonyl]-4-hydroxypiperidin-4-hydroxypiperidin-4-yl}methyl)pyrimidin-4(3H)-one] | 9.8 nM | 0.028 µM | 
COc1cc(Oc2ncn(CC3(O)CCN(C(=O)[C@@H]4CCC(F)(F)C[C@H]4c4ccccc4)CC3)c(=O)c2N)ccc1Cl [Example 12, 5-amino-6-(4-chloro-3-methoxy-phenoxy)-3-({1-[(1R,2R)-4,4-difluoro-2-phenylcyclohexane-1-carbonyl]-4-hydroxypiperidin-4-yl}methyl)pyrimidin-4(3H)-one] | 57.1 nM |  | 0.0909 µM
CO[C@]1(C#Cc2ccccn2)CC[C@@H](C(=O)N2CC[C@](O)(Cn3cnc(Oc4ccc(F)cc4)c(N)c3=O)C(F)(F)C2)[C@H](c2ccccc2)C1 [Example 166, 5-amino-3-{[(4S)-3,3-difluoro-4-hydroxy-1-[(1R,2R,4R)-4-methoxy-2-phenyl-4-[2-(pyridin-2-yl)ethynyl]cyclohexanecarbonyl]piperidin-4-yl]methyl}-6-(4-fluorophenoxy)-3,4-dihydropyrimidin-4-one] | 11.2 nM | 0.00943 µM | 

More lines, main results first:

IC50 [1] | Compound | IC50 ([2]; Z-138, 96 h) | IC50 ([2]; Z-138)
45.9 nM | Nc1c(Oc2ccc(OCCO)cc2)ncn(CC2(O)CCN(C(=O)[C@@H]3CCC(F)(F)C[C@H]3c3ccccc3)CC2)c1=O [Example 33, 5-amino-3-({1-[(1R,2R)-4,4-difluoro-2-phenylcyclohexane-1-carbonyl]-4-hydroxypiperidin-4-yl}methyl)-6-[4-(2-hydroxyethoxy)phenoxy]pyrimidin-4(3H)-one] | 0.0646 µM | 
63.4 nM | Nc1c(Oc2ccc(F)cc2)ncn(CC2(O)CCN(C(=O)[C@@H]3CC[C@](O)(Cc4ccccc4)C[C@H]3c3ccccc3)CC2)c1=O (relative stereo) [Example 94, rel-5-amino-3-({1-[(1R,2R,4R)-4-benzyl-4-hydroxy-2-phenyl-cyclohexanecarbonyl]-4-hydroxypiperidin-4-yl}methyl)-6-(4-fluorophenoxy)-3,4-dihydropyrimidin-4-one] | 0.0494 µM | 
41 nM | Nc1c(Oc2ccc(F)cc2)ncn(CC2(O)CCN(C(=O)[C@@H]3CC[C@](F)(C#Cc4ncccn4)C[C@H]3c3ccccc3)CC2)c1=O [Example 141, 5-amino-3-[(1-{[(1R,2R,4R)-4-fluoro-2-phenyl-4-[2-(pyrimidin-2-yl)ethynyl]cyclohexyl]carbonyl}-4-hydroxypiperidin-4-yl)methyl]-6-(4-fluorophenoxy)pyrimidin-4-one] | 0.0117 µM | 
80.2 nM | COc1ccc(Oc2ncn(CC3(O)CCN(C(=O)[C@@H]4CCC(F)(F)C[C@H]4c4ccccc4)CC3)c(=O)c2N)cc1 [Example 3, 5-amino-3-({1-[(1R,2R)-4,4-difluoro-2-phenylcyclohexane-1-carbonyl]-4-hydroxypiperidin-4-yl}methyl)-6-(4-methoxyphenoxy)pyrimidin-4(3H)-one] | 0.0595 µM | 
26.3 nM | C#C[C@]1(F)CC[C@@H](C(=O)N2CCC(O)(Cn3cnc(Oc4ccc(F)cc4)c(N)c3=O)CC2)[C@H](c2ccccc2)C1 [Example 122, 5-amino-3-({1-[(1R,2R,4S)-4-ethynyl-4-fluoro-2-phenylcyclohexanecarbonyl]-4-hydroxypiperidin-4-yl}methyl)-6-(4-fluorophenoxy)-3,4-dihydropyrimidin-4-one] | 0.0374 µM | 
7.4 nM | CC(N)c1ccc(Oc2ncn(CC3(O)CCN(C(=O)[C@@H]4CCC(F)(F)C[C@H]4c4ccccc4)CC3)c(=O)c2N)cc1 (single isomer, unassigned; diastereoisomer 1) [Example 54] | 0.273 µM | 
29.6 nM | CO[C@]1(C#Cc2cnccn2)CC[C@@H](C(=O)N2CCC(O)(Cn3cnc(Oc4ccc(F)cc4)c(N)c3=O)CC2)[C@H](c2ccccc2)C1 [Example 156, 5-amino-6-(4-fluorophenoxy)-3-({4-hydroxy-1-[(1R,2R,4R)-4-methoxy-2-phenyl-4-[2-(pyrazin-2-yl)ethynyl]cyclohexanecarbonyl]piperidin-4-yl}methyl)-3,4-dihydropyrimidin-4-one] | 0.00653 µM | 
17 nM | Nc1c(Oc2ccc(F)cc2)ncn(CC2(O)CCN(C(=O)[C@@H]3CC[C@](F)(C#Cc4cccnc4)C[C@H]3c3ccccc3)CC2)c1=O [Example 130, 5-amino-3-[(1-{[(1R,2R,4R)-4-fluoro-2-phenyl-4-[2-(pyridin-3-yl)ethynyl]cyclohexyl]carbonyl}-4-hydroxypiperidin-4-yl)methyl]-6-(4-fluorophenoxy)pyrimidin-4-one] | 0.0144 µM | 

From patent US20210221785A1, “AMINO-PYRIMIDONYL DERIVATIVES, A PROCESS FOR THEIR PREPARATION AND PHARMACEUTICAL COMPOSITIONS CONTAINING THEM” (LES LABORATOIRES SERVIER, priority 2018, published 2021)
